Experimental data taken from patent US20240165243A1, “EGFR DEGRADERS AND METHODS OF USE” (BeiGene Switzerland GmbH, priority 2021, published 2024).

Test system: EGFR (Del19/T790M/C797S)
Test: Cell degradation HTRF assay, H1975-clone #28 cells
Type: cell-based
Details: H1975-clone #28 (Del19/T790M/C797S) cells, 16 h treatment; for DC50: HTRF, read-out: H1975-clone#28 DTC DC50; for H1975-clone#28 DTC Dmax (%): maximum percentage of degradation
Protocol: Cell Degradation of Example 124-189
H1975-#28 and H1975-#25 cells are treated with compounds diluted in 0.2% DMSO cell culture medium on day 2, incubate for 16 h, 37° C., 5% CO2. the final concentration of compounds in all assay is start with 10 uM, 5-fold dilution, total 8 doses were included.
After 16 h treatment, add HTRF lysis buffer to each well; seal the plate and incubate 1 hour at room temperature on a plate shaker; Once the cells are lysed, 16 μL of cell lysate are transferred to a PE 384-well HTRF detection plate; 4 μL of pre-mixed HTRF antibodies are added to each well; Cover the plate with a plate sealer, spin 1000 rpm for 1 min, Incubate overnight at room temperature; Read on BMG PheraStar with HTRF protocol (337 nm-665 nm-620 nm).
The inhibition (degradation) percentage of the compound was calculated by the following equation:
Inhibition percentage of Compound=100−100×(Signal−low control)/(High control−low control), wherein signal=each test compound group.
High control=Cell group with added DMSO and without compound, indicating microplate readings without EGFR degradation;
Dmax is the maximum percentage of inhibition (degradation).
The IC50 (DC50) value of a compound can be obtained by fitting the following equation
Y=Bottom+(TOP−Bottom)/(1+((IC50/X)^hillslope))
Wherein, X and Y are known values, and IC50, Hillslope, Top and Bottom are the parameters obtained by fitting with software. Y is the inhibition percentage (calculated from the equation), X is the concentration of the compound; IC50 is the concentration of the compound when the 50% inhibition is reached. The smaller the IC50 value is, the stronger the inhibitory ability of the compound is. Vice versa, the higher the IC50 value is, the weaker the ability the inhibitory ability of the compound is; Hillslope represents the slope of the fitted curve, generally around 1*; Bottom represents the minimum value of the curve obtained by data fitting, which is generally 0%±20%; Top represents the maximum value of the curve obtained by data fitting, which is generally 100%±20%. The experimental data were fitted by calculating and analyzing with Dotmatics data analysis software. When Dmax<50%, DC50 will be automatically assigned as larger than […].

| DC50 [nM] | Structure (SMILES) | H1975-clone#28 DTC Dmax (%) |
| --- | --- | --- |
| 1.3 | CCc1cc(Nc2ncc(Br)c(Nc3cnc4ccccc4c3P(C)(C)=O)n2)c(OC)cc1N1CCC(N2CCN(CCc3ccc(F)c4c3oc(=O)n4[C@H]3CCC(=O)NC3=O)CC2)CC1 [Example 126, (S)-3-(7-(2-(4-(1-(4-((5-bromo-4-((4-(dimethylphosphoryl)quinolin-3-yl)amino)pyrimidin-2-yl)amino)-2-ethyl-5-methoxyphenyl)piperidin-4-yl)piperazin-1-yl)ethyl)-4-fluoro-2-oxobenzo[d]oxazol-3(2H)-yl)piperidine-2,6-dione] | 84 |
| 1 | CCc1cc(Nc2ncc(Br)c(Nc3cnc4ccccc4c3P(C)(C)=O)n2)c(OC)cc1N1CCC(N2CCN(CCc3ccc(F)c4c3n(C)c(=O)n4C3CCC(=O)NC3=O)CC2)CC1 (stereo not shown) [Example 130, 3-(4-(2-(4-(1-(4-((5-bromo-4-((4-(dimethylphosphoryl)quinolin-3-yl)amino)pyrimidin-2-yl)amino)-2-ethyl-5-methoxyphenyl)piperidin-4-yl)piperazin-1-yl)ethyl)-7-fluoro-3-methyl-2-oxo-2,3-dihydro-1H-benzo[d]imidazol-1-yl)piperidine-2,6-dione] | 86 |
| 1 | CCc1cc(Nc2ncc(Br)c(Nc3cnc4ccccc4c3P(C)(C)=O)n2)c(OC)cc1N1CCC(N2CCN(CCc3ccc4c(c3)oc(=O)n4C3CCC(=O)NC3=O)CC2)CC1 (stereo not shown) [Example 132, 3-(6-(2-(4-(1-(4-((5-bromo-4-((4-(dimethylphosphoryl)quinolin-3-yl)amino)pyrimidin-2-yl)amino)-2-ethyl-5-methoxyphenyl)piperidin-4-yl)piperazin-1-yl)ethyl)-2-oxobenzo[d]oxazol-3(2H)-yl)piperidine-2,6-dione] | 80 |
| 3 | CCOc1cc(N2CCC(N3CCN(CCc4ccc5c(c4)oc(=O)n5C4CCC(=O)NC4=O)CC3)CC2)c(CC)cc1Nc1ncc(Br)c(Nc2cnc3cc(F)ccc3c2P(C)(C)=O)n1 (stereo not shown) [Example 133, 3-(6-(2-(4-(1-(4-((5-bromo-4-((4-(dimethylphosphoryl)-7-fluoroquinolin-3-yl)amino)pyrimidin-2-yl)amino)-5-ethoxy-2-ethylphenyl)piperidin-4-yl)piperazin-1-yl)ethyl)-2-oxobenzo[d]oxazol-3(2H)-yl)piperidine-2,6-dione] | 71 |
| 0.8 | CCc1cc(Nc2ncc(Br)c(Nc3cnc4cc(F)ccc4c3P(C)(C)=O)n2)c(OC)cc1N1CCC(N2CCN(CCc3ccc4c(c3)oc(=O)n4C3CCC(=O)NC3=O)CC2)CC1 (stereo not shown) [Example 134, 3-(6-(2-(4-(1-(4-((5-bromo-4-((4-(dimethylphosphoryl)-7-fluoroquinolin-3-yl)amino)pyrimidin-2-yl)amino)-2-ethyl-5-methoxyphenyl)piperidin-4-yl)piperazin-1-yl)ethyl)-2-oxobenzo[d]oxazol-3(2H)-yl)piperidine-2,6-dione] | 79 |
| 0.9 | CCc1cc(Nc2ncc(Br)c(Nc3cnc4ccccc4c3P(C)(C)=O)n2)c(OC)cc1N1CCC(N2CCN(CCc3cccc4c3n(CC)c(=O)n4C3CCC(=O)NC3=O)CC2)CC1 (stereo not shown) [Example 135, 3-(4-(2-(4-(1-(4-((5-bromo-4-((4-(dimethylphosphoryl)quinolin-3-yl)amino)pyrimidin-2-yl)amino)-2-ethyl-5-methoxyphenyl)piperidin-4-yl)piperazin-1-yl)ethyl)-3-ethyl-2-oxo-2,3-dihydro-1H-benzo[d]imidazol-1-yl)piperidine-2,6-dione] | 83 |
| 0.6 | CCOc1cc(N2CCC(N3CCN(CCc4cc(F)c(F)c5c4oc(=O)n5C4CCC(=O)NC4=O)CC3)CC2)c(CC)cc1Nc1ncc(Br)c(Nc2cnc3ccccc3c2P(C)(C)=O)n1 (stereo not shown) [Example 136, 3-(7-(2-(4-(1-(4-((5-bromo-4-((4-(dimethylphosphoryl)quinolin-3-yl)amino)pyrimidin-2-yl)amino)-5-ethoxy-2-ethylphenyl)piperidin-4-yl)piperazin-1-yl)ethyl)-4,5-difluoro-2-oxobenzo[d]oxazol-3(2H)-yl)piperidine-2,6-dione] | 81 |
| 2.1 | CCOc1cc(N2CCC(N3CCN(CCc4c(F)ccc5c4n(C)c(=O)n5C4CCC(=O)NC4=O)CC3)CC2)c(CC)cc1Nc1ncc(Br)c(Nc2cnc3ccccc3c2P(C)(C)=O)n1 (stereo not shown) [Example 137, 3-(4-(2-(4-(1-(4-((5-bromo-4-((4-(dimethylphosphoryl)quinolin-3-yl)amino)pyrimidin-2-yl)amino)-5-ethoxy-2-ethylphenyl)piperidin-4-yl)piperazin-1-yl)ethyl)-5-fluoro-3-methyl-2-oxo-2,3-dihydro-1H-benzo[d]imidazol-1-yl) piperidine-2,6-dione] | 86 |
| 3 | CCOc1cc(N2CCC(N3CCN(CCc4cccc5c4C(C)(C)C(=O)N5C4CCC(=O)NC4=O)CC3)CC2)c(CC)cc1Nc1ncc(Br)c(Nc2cnc3ccccc3c2P(C)(C)=O)n1 (stereo not shown) [Example 138, 3-(4-(2-(4-(1-(4-((5-bromo-4-((4-(dimethylphosphoryl)quinolin-3-yl)amino)pyrimidin-2-yl)amino)-5-ethoxy-2-ethylphenyl)piperidin-4-yl)piperazin-1-yl)ethyl)-3,3-dimethyl-2-oxoindolin-1-yl)piperidine-2,6-dione] | 83 |
| 1.5 | CCOc1cc(N2CCC(N3CCN(CCc4ccc5c(c4)oc(=O)n5C4CCC(=O)NC4=O)CC3)CC2)c(CC)cc1Nc1ncc(Br)c(Nc2cnc3ccccc3c2P(C)(C)=O)n1 (stereo not shown) [Example 139, 3-(6-(2-(4-(1-(4-((5-bromo-4-((4-(dimethylphosphoryl)quinolin-3-yl)amino)pyrimidin-2-yl)amino)-5-ethoxy-2-ethylphenyl)piperidin-4-yl)piperazin-1-yl)ethyl)-2-oxobenzo[d]oxazol-3(2H)-yl)piperidine-2,6-dione] | 75 |
| 4.4 | CCOc1cc(N2CCC(N3CCN(CCc4cccc5c4n(C)c(=O)n5C4CCC(=O)NC4=O)CC3)CC2)c(CC)cc1Nc1ncc(Br)c(Nc2cnc3ccccc3c2P(C)(C)=O)n1 (stereo not shown) [Example 140, 3-(4-(2-(4-(1-(4-((5-bromo-4-((4-(dimethylphosphoryl)quinolin-3-yl)amino)pyrimidin-2-yl)amino)-5-ethoxy-2-ethylphenyl)piperidin-4-yl)piperazin-1-yl)ethyl)-3-methyl-2-oxo-2,3-dihydro-1H-benzo[d]imidazol-1-yl)piperidine-2,6-dione] | 84 |
| 0.9 | CCc1cc(Nc2ncc(Br)c(Nc3cnc4ccccc4c3P(C)(C)=O)n2)c(OC)cc1N1CCC(N2CCN(CCc3ccc4c(oc(=O)n4C4CCC(=O)NC4=O)c3F)CC2)CC1 (stereo not shown) [Example 142, 3-(6-(2-(4-(1-(4-((5-bromo-4-((4-(dimethylphosphoryl)quinolin-3-yl)amino)pyrimidin-2-yl)amino)-2-ethyl-5-methoxyphenyl)piperidin-4-yl)piperazin-1-yl)ethyl)-7-fluoro-2-oxobenzo[d]oxazol-3(2H)-yl)piperidine-2,6-dione] | 81 |
| 1.3 | CCOc1cc(N2CCC(N3CCN(CCc4ccc5c(c4)oc(=O)n5C4CCC(=O)NC4=O)CC3)CC2)c(CC)cc1Nc1ncc(Br)c(Nc2cnc3cc(F)ccc3c2P(C)(C)=O)n1 (stereo not shown) [Example 149, 3-(6-(2-(4-(1-(4-((5-bromo-4-((4-(dimethylphosphoryl)-7-fluoroquinolin-3-yl)amino)pyrimidin-2-yl)amino)-5-ethoxy-2-ethylphenyl)piperidin-4-yl)piperazin-1-yl)ethyl)-2-oxobenzo[d]oxazol-3(2H)-yl)piperidine-2,6-dione] | 73 |
| 1.1 | CCc1cc(Nc2ncc(Br)c(Nc3cnc4cc(F)ccc4c3P(C)(C)=O)n2)c(OC)cc1N1CCC(N2CCN(CCc3cc(F)c4c(c3)oc(=O)n4[C@H]3CCC(=O)NC3=O)CC2)CC1 [Example 151, (S)-3-(6-(2-(4-(1-(4-((5-bromo-4-((4-(dimethylphosphoryl)-7-fluoroquinolin-3-yl)amino)pyrimidin-2-yl)amino)-2-ethyl-5-methoxyphenyl)piperidin-4-yl)piperazin-1-yl)ethyl)-4-fluoro-2-oxobenzo[d]oxazol-3(2H)-yl)piperidine-2,6-dione] | 79 |
